# Reference: publication PMC4591263, “The GSTome Reflects the Chemical Environment of White-Rot Fungi” (PLoS ONE, 2015)
# Tests used:
# Test in all cases: GSH conjugation of CDNB, Michaelis-Menten fit
# Type in all cases: biochemical
# Conditions in all cases: saturating GSH
# [1] = target: T1, TvGSTO-6S (Trametes versicolor, UniProt A0A384E158)
# T1 construct: synthetic gene in pET-26b (NdeI/NotI), C-terminal His-tag, E. coli Rosetta2 (DE3) pLysS
# T1 sequence (A0A384E158 1-246): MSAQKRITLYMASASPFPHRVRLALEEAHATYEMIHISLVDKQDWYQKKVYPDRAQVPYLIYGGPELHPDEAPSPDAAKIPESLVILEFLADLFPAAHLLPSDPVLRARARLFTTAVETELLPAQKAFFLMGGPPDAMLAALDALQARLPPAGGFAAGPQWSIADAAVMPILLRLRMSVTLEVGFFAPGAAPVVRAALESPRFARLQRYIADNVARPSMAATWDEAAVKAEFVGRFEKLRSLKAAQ
# [2] = target: T2, TvGSTO-3S (Trametes versicolor, UniProt A0A384E145)
# T2 construct: synthetic gene in pET-26b (NdeI/NotI), C-terminal His-tag, E. coli Rosetta2 (DE3) pLysS
# T2 sequence (A0A384E145 1-240): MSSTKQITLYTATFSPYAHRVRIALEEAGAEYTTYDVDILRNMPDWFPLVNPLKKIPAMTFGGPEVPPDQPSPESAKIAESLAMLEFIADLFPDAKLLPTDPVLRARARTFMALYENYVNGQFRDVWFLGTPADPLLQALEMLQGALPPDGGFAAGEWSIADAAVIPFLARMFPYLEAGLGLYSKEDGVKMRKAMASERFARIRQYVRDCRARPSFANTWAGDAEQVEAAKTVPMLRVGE
# [3] = target: T3, TvGSTO-1S (Trametes versicolor, UniProt R7S9J3)
# T3 construct: gene TRAVEDRAFT_75639; synthetic gene in pET-26b (NdeI/NotI), C-terminal His-tag, E. coli Rosetta2 (DE3) pLysS
# T3 sequence (R7S9J3 1-256): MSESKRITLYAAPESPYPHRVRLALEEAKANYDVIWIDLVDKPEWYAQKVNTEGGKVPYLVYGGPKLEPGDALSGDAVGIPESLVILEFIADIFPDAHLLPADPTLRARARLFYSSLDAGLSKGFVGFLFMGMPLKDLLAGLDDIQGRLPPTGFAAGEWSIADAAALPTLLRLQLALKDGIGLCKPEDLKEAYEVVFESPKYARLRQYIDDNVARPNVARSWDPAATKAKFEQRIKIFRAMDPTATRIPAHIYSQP
structure (smiles),measurement,setting,value
"O=[N+]([O-])c1ccc(Cl)c([N+](=O)[O-])c1 [CDNB, 1-chloro-2,4-dinitrobenzene]",Km,[1],All proteins exhibit an activity against CDNB
same,Km,[2],All proteins exhibit an activity against CDNB
same,Km,[3],All proteins exhibit an activity against CDNB
